For two compounds, MIC results are on record in patent publication US5900488A, “Method for treating mycosis using imidazolylacetonitrile derivatives” (Nihon Nohyaku Co., Ltd., priority 1995, dated 1999).

Each structure is given as a SMILES string. In brackets after ≈: the same amount, converted by molar mass. Like-named read-outs stand apart in the source and are kept apart here.

Common to all, as to assay type: cell-based
The test system of assay [1] is Candida albicans. Description: In vitro antifungal activity against Candida albicans, MIC by twofold micro-broth dilution (Test Example 3). The protocol: MICs were determined by the twofold micro-broth dilution method with RPMI 1640 buffered with morphorino-propanesulfonic acid to a final molarity of 0.165M (pH 7.0). One hundred μl of a yeast cell suspension (1 to 5×10^3 cells/ml) and 100 μl of the compound-containing medium were pipetted into each well flat-bottomed microtiter plates. After incubation for 48 hours at 35° C., the turbidity of each well was measured at 630 nm.
(In broth dilution the organism is exposed to a series of concentrations in liquid medium.)

Assay [2] relates to Trichophyton rubrum. Description: In vitro activity against Trichophyton rubrum, MIC by twofold macro-broth dilution (Test Example 1). The protocol: (§1) Minimum inhibitory concentrations (MICs) were determined by the twofold macro-broth dilution method with Sabouraud's glucose broth which constituted with 1% bactopeptone and 4% glucose. To each tube containing 9.8 ml of the broth, 0.1 ml of each testing compound dissolved in DMSO and 0.1 ml of a conidial suspension (1×10^6 conidia/ml) were added. The fungal growth was observed after incubation for 7 days at 27° C. The MIC was determined as the lowest drug concentration which prevented a visible fungal growth.

The test system of assay [3] is Trichophyton mentagrophytes. Description: In vitro activity against Trichophyton mentagrophytes, MIC by twofold macro-broth dilution (Test Example 1). The note with it: Trichophyton mentagrophytes, 7 days at 27° C. The protocol: as §1

As for `OC(Cn1cncn1)(Cn1cncn1)c1ccc(F)cc1F` [FCZ, 2(2,4-Difluorophenyl)-1,3-bis(1H-1,2,4-triazol-1-yl)-2-propanol], the MIC in assay [1] (IFO0197, 48 h, pH 7) was determined as 0.25 µg/mL (≈ 0.816 µM); in assay [1] (IFO0579, 48 h, pH 7), 0.125 µg/mL (≈ 0.408 µM); in assay [1] (IFO1269, 48 h, pH 7), 0.25 µg/mL (≈ 0.816 µM); in assay [1] (IFO1270, 48 h, pH 7), 0.25 µg/mL (≈ 0.816 µM); in assay [1] (IFO1385, 48 h, pH 7), 0.25 µg/mL (≈ 0.816 µM); in assay [1] (IFO1386, 48 h, pH 7), 0.5 µg/mL (≈ 1.63 µM). In addition, the minimum inhibitory concentration (MIC) in assay [1] (TIMM3163, 48 h, pH 7) is 16 µg/mL (≈ 52.2 µM); in assay [1] (TIMM3164, 48 h, pH 7), 2 µg/mL (≈ 6.53 µM); in assay [1] (TIMM3165, 48 h, pH 7), greater than 32 µg/mL; in assay [1] (TIMM3166, 48 h, pH 7), 8 µg/mL (≈ 26.1 µM).
As to `CN(C/C=C/C#CC(C)(C)C)Cc1cccc2ccccc12` [TBF, (E)N-(6,6-Dimethyl-2-hepten-4-ynyl)-N-methyl-1-naphthalenemethaneamine hyrochloride], the MIC is greater than 32 µg/mL in assay [1] (IFO0197, strain IFO 0197, 80% inhibition, 48 hours at 35° C., pH 7.0, read-out: MIC); greater than 32 µg/mL in assay [1] (IFO0579, strain IFO 0579, 80% inhibition, 48 hours at 35° C., pH 7.0, read-out: MIC); 4 µg/mL (≈ 13.7 µM) in assay [1] (IFO1269, strain IFO 1269, 80% inhibition, 48 hours at 35° C., pH 7.0, read-out: MIC); greater than 32 µg/mL in assay [1] (IFO1270, strain IFO 1270, 80% inhibition, 48 hours at 35° C., pH 7.0, read-out: MIC); greater than 32 µg/mL in assay [1] (IFO1385, strain IFO 1385, 80% inhibition, 48 hours at 35° C., pH 7.0, read-out: MIC); greater than 32 µg/mL in assay [1] (IFO1386, strain IFO 1386, 80% inhibition, 48 hours at 35° C., pH 7.0, read-out: MIC). The MIC in assay [1] (TIMM3163, strain TIMM 3163, 80% inhibition, 48 hours at 35° C., pH 7.0, read-out: MIC) is greater than 32 µg/mL; in assay [1] (TIMM3164, strain TIMM 3164, 80% inhibition, 48 hours at 35° C., pH 7.0, read-out: MIC), greater than 32 µg/mL; in assay [1] (TIMM3165, strain TIMM 3165, 80% inhibition, 48 hours at 35° C., pH 7.0, read-out: MIC), greater than 32 µg/mL; in assay [1] (TIMM3166, strain TIMM 3166, 80% inhibition, 48 hours at 35° C., pH 7.0, read-out: MIC), greater than 32 µg/mL; in assay [2] (IFO5467, 168 h, strain IFO 5467, 7 days at 27° C.), 0.005 µg/mL (≈ 0.0172 µM); in assay [2] (IFO5807, 168 h, strain IFO 5807, 7 days at 27° C.) it was 0.005 µg/mL (≈ 0.0172 µM). The MIC in assay [2] (IFO5808, 168 h, strain IFO 5808, 7 days at 27° C.) worked out at 0.005 µg/mL (≈ 0.0172 µM); in assay [2] (IFO6203, 168 h, strain IFO 6203, 7 days at 27° C.), 0.0025 µg/mL (≈ 0.00858 µM); in assay [2] (IFO6204, 168 h, strain IFO 6204, 7 days at 27° C.), 0.005 µg/mL (≈ 0.0172 µM); in assay [2] (IFO9185, 168 h, strain IFO 9185, 7 days at 27° C.) it was 0.0025 µg/mL (≈ 0.00858 µM); in assay [2] (TIMM1822, 168 h, strain TIMM 1822, 7 days at 27° C.) it was 0.0025 µg/mL (≈ 0.00858 µM); in assay [2] (TIMM1823, 168 h, strain TIMM 1823, 7 days at 27° C.) it was 0.0025 µg/mL (≈ 0.00858 µM). The minimal inhibitory concentration (MIC) stood at 0.0013 µg/mL (≈ 0.00446 µM) in assay [2] (TIMM1824, 168 h, strain TIMM 1824, 7 days at 27° C.); 0.00063 µg/mL (≈ 0.00216 µM) in assay [2] (TIMM1830, 168 h, strain TIMM 1830, 7 days at 27° C.); 0.02 µg/mL (≈ 0.0686 µM) in assay [3] (IFO5466, 168 h, strain IFO 5466); 0.01 µg/mL (≈ 0.0343 µM) in assay [3] (IFO5809, 168 h, strain IFO 5809); 0.005 µg/mL (≈ 0.0172 µM) in assay [3] (IFO5810, 168 h, strain IFO 5810); 0.01 µg/mL (≈ 0.0343 µM) in assay [3] (IFO5811, 168 h, strain IFO 5811). Moreover, the MIC turned out to be 0.01 µg/mL (≈ 0.0343 µM) in assay [3] (IFO5929, 168 h, strain IFO 5929); 0.01 µg/mL (≈ 0.0343 µM) in assay [3] (TIMM1189, 168 h, strain TIMM 1189); 0.01 µg/mL (≈ 0.0343 µM) in assay [3] (TIMM1814, 168 h, strain TIMM 1814); 0.02 µg/mL (≈ 0.0686 µM) in assay [3] (TIMM1815, 168 h, strain TIMM 1815); 0.01 µg/mL (≈ 0.0343 µM) in assay [3] (TIMM1817, 168 h, strain TIMM 1817); 0.0025 µg/mL (≈ 0.00858 µM) in assay [3] (TIMM2789, 168 h, strain TIMM 2789).

By MIC is commonly meant the smallest concentration in the dilution series that meets the test's criterion for growth inhibition.
